Assays:
pERK in HCT116 cells = test: Inhibition of KRas phosphorylation of ERK (Cisbio HTRF pERK assay); conditions: Homo sapiens, HCT-116, read-out: Inhibition (HTRF IC50) of KRas-mediated Phosphorylation of ERK, HCT116
[1] = test system: phospho-ERK in NCI-H460 (Q61H) cells; test: Inhibition of KRas-mediated phosphorylation of ERK (in-cell western); type: cell-based; conditions: Homo sapiens, NCI-H460, 3 h, 3 hours compound, phospho-ERK normalized to GAPDH
Outline: (§1)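 After a 3-hour incubation with diluted compound in 0.5% DMSO, cells are fixed, permeabilized and stained overnight at 4° C for phosphorylated ERK and GAPDH.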

[2] = test system: phospho-ERK in AsPC-1 (G12D) cells; test: as above; type: cell-based; conditions: Homo sapiens, ASPC1, 3 h, 3 hours compound, phospho-ERK normalized to GAPDH
Outline: as §1

[3] = test system: phospho-ERK in A549 (G12S) cells; test: as above; type: cell-based; conditions: Homo sapiens, 3 hours compound, phospho-ERK normalized to GAPDH
Outline: as §1

[4] = test system: phospho-ERK in HCT116 (G13D) cells; test: as above; type: cell-based; conditions: Homo sapiens, HCT-116, 3 hours compound, phospho-ERK normalized to GAPDH
Outline: as §1

[5] = test system: phospho-ERK in NCI-H358 (G12C) cells; test: as above; type: cell-based; conditions: Homo sapiens, 3 hours compound, phospho-ERK normalized to GAPDH
Outline: as §1

[6] = test system: phospho-ERK in PSN-1 (G12R) cells; test: as above; type: cell-based; conditions: Homo sapiens, PSN1, 3 hours compound, phospho-ERK normalized to GAPDH
Outline: as §1

[7] = test system: phospho-ERK in MKN1 (WTdep) cells; test: as above; type: cell-based; conditions: Homo sapiens, MKN-1, 3 hours compound, phospho-ERK normalized to GAPDH
Outline: as §1

[8] = test system: phospho-ERK in NCI-H727 (G12V) cells; test: as above; type: cell-based; conditions: Homo sapiens, NCI-H727, 3 h, 3 hours compound, phospho-ERK normalized to GAPDH
Outline: as §1

pERK in H727 cells = test: Inhibition of KRas phosphorylation of ERK (Cisbio HTRF pERK assay); conditions: Homo sapiens, NCI-H727, read-out: Inhibition (HTRF IC50) of KRas-mediated Phosphorylation of ERK, H727
KRas G12V = KRas G12V (Homo sapiens, UniProt P01116, G12V); test: biochemical;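 note: KRas binding measured by TR-FRET displacement at room temperature, IC50 fitted from percent of control values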
Description: (§2) The ability of a compound to bind to KRas was measured using a TR-FRET displacement assay. […] After a 60-minute incubation at room temperature, the reaction was measured using a BMG LABTECH CLARIO star Plus via TR-FRET. […] The POC values were fit to a 4-parameter IC50 equation and the IC50 value reported.

KRas G12R = KRas G12R (Homo sapiens, UniProt P01116, G12R); test: biochemical;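 note: TR-FRET displacement assay of compound binding to KRas, read after one hour at room temperature, potency from a four-parameter fit of percent-of-control values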
Description: as §2

KRas G12D = KRas G12D (Homo sapiens, UniProt P01116, G12D); test: biochemical;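 note: TR-FRET displacement binding assay on KRas, read after a one-hour incubation at room temperature, IC50 fitted from percent-of-control values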
Description: as §2

pERK in H460 cells = test: Inhibition of KRas phosphorylation of ERK (Cisbio HTRF pERK assay); conditions: Homo sapiens, NCI-H460, read-out: Inhibition (HTRF IC50) of KRas-mediated Phosphorylation of ERK, H460
pERK in ASPC1 cells = test: as above; conditions: Homo sapiens, ASPC1, read-out: Inhibition (HTRF IC50) of KRas-mediated Phosphorylation of ERK, AsPC-1
pERK in A549 cells = test: as above; conditions: Homo sapiens, A549, read-out: Inhibition (HTRF IC50) of KRas-mediated Phosphorylation of ERK, A549
KRas G13D = biological target: T1, KRas G13D (Homo sapiens, UniProt P01116, G13D); test: KRas binding assay (TR-FRET displacement);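 note: One-hour room temperature incubation before TR-FRET reading, IC50 from a four-parameter curve fit to percent-of-control data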
T1 construct: Biotinylated KRas (corresponding to amino acids 1-169, produced at Accelegan Inc.); biotin (biotinylated); purchased Accelegan Inc
Description: as §2

KRas Q61H = biological target: T2, KRas Q61H (Homo sapiens, UniProt P01116, Q61H); test: KRas binding assay (TR-FRET displacement);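 note: TR-FRET signal read after one hour at room temperature, IC50 derived by four-parameter fitting of percent-of-control values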
T2 construct: Biotinylated KRas (corresponding to amino acids 1-169, produced at Accelegan Inc.); biotin (biotinylated); purchased Accelegan Inc
Description: as §2

KRas WT = KRas WT (Homo sapiens, UniProt P01116); test: biochemical;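 note: binding to KRas read as TR-FRET displacement after a one-hour room-temperature incubation, IC50 derived from percent-of-control values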
Description: as §2

KRas G12A = KRas G12A (Homo sapiens, UniProt P01116, G12A); test: biochemical;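 note: binding to KRas measured by TR-FRET displacement after one hour at room temperature, IC50 from a four-parameter fit of percent-of-control values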
Description: as §2

KRas G12C = KRas G12C (Homo sapiens, UniProt P01116, G12C); test: biochemical;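 note: binding to KRas assessed by TR-FRET displacement after one hour incubation at room temperature, potency fitted from percent-of-control values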
Description: as §2

KRas G12S = KRas G12S (Homo sapiens, UniProt P01116, G12S); test: biochemical;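 note: TR-FRET displacement binding to KRas, read after one hour incubation at room temperature, IC50 from four-parameter fit of percent of control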
Chain of KRas G12S (P01116 1-169 isoform P01116-2 G12S): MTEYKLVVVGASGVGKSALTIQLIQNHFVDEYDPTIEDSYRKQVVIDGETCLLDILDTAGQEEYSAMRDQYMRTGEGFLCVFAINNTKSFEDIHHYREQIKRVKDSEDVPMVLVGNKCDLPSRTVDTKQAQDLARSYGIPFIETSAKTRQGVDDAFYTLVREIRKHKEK
Description: as §2

Chain of KRas G12D (P01116 1-169 isoform P01116-2 G12D): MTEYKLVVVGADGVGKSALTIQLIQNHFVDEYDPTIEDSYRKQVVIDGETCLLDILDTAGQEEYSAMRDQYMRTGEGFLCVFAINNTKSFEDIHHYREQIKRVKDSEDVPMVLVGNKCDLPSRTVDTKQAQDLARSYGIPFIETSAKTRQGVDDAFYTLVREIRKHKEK
Chain of KRas G12V (P01116 1-169 isoform P01116-2 G12V): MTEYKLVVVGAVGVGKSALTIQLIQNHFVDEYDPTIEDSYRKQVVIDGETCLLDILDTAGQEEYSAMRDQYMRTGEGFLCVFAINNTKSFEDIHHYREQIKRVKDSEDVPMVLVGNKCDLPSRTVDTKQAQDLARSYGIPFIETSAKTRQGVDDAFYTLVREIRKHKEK
Chain of KRas G12R (P01116 1-169 isoform P01116-2 G12R): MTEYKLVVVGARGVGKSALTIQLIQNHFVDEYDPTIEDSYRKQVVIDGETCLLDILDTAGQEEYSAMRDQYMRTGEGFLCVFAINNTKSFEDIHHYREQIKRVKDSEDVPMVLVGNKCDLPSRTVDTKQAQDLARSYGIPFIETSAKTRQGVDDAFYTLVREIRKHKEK
Chain of KRas G12C (P01116 1-169 isoform P01116-2 G12C): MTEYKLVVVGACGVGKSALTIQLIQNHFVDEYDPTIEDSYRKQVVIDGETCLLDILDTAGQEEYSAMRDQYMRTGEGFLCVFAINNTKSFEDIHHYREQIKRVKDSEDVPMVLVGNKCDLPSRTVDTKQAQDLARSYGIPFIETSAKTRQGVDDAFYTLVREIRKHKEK
Chain of KRas WT (P01116 1-169 isoform P01116-2): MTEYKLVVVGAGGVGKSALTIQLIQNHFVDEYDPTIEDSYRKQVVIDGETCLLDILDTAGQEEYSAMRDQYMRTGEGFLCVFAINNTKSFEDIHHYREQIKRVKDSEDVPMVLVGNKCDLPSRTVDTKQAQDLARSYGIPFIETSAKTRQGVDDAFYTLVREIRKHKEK
Chain of KRas G12A (P01116 1-169 isoform P01116-2 G12A): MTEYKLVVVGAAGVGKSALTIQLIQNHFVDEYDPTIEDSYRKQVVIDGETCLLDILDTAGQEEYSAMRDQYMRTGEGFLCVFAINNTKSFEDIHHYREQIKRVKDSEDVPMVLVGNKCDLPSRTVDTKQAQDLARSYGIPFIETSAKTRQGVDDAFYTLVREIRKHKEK
T1 sequence (P01116 1-169 isoform P01116-2 G13D): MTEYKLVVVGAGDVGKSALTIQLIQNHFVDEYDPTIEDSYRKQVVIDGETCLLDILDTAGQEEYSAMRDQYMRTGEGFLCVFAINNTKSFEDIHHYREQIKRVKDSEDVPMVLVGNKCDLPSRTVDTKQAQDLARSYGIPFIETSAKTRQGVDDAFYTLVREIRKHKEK
T2 sequence (P01116 1-169 isoform P01116-2 Q61H): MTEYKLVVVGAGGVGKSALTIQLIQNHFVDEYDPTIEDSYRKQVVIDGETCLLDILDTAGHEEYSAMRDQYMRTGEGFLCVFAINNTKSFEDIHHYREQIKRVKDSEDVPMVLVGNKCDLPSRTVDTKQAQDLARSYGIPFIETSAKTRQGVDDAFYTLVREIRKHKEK

Row | SMILES | IC50 (pERK in HCT116 cells) | IC50 [1] | IC50 [2] | IC50 [3] | IC50 [4] | IC50 [5] | IC50 [6] | IC50 [7] | IC50 [8] | IC50 (pERK in H727 cells) | IC50 (KRas G12V) | IC50 (KRas G12R) | IC50 (KRas G12D) | IC50 (pERK in H460 cells) | IC50 (pERK in ASPC1 cells) | further results
1 | CCc1c(F)ccc2cc(O)cc(-c3ncc4c(N5CC6CC(O)CC5C6)nc(OC[C@@]56CCCN5C[C@H](F)C6)nc4c3F)c12 (stereo partly drawn) [Example 58] | 179 nM | 111 nM | 24 nM | 455 nM | 1460 nM | 24 nM | 1310 nM | 23 nM | 242 nM | 45 nM | ≤ 2 nM | ≤ 2 nM | 6 nM | 69 nM | 75 nM | 
2 | CCc1c(F)ccc2cc(O)cc(-c3ncc4c(N5CCCn6nc(N)cc6C5)nc(OC[C@@]56CCCN5C[C@H](F)C6)nc4c3F)c12 [Example 61, 4-(4-(2-amino-7,8-dihydro-4H-pyrazolo[1,5-a][1,4]diazepin-5 (6H)-yl)-8-fluoro-2-(((2R,7aS)-2-fluorohexahydro-1H-pyrrolizin-7a-yl)methoxy)pyrido[4,3-d]pyrimidin-7-yl)-5-ethyl-6-fluoronaphthalen-2-ol] | 1640 nM | 550 nM | 306 nM | 699 nM | 518 nM | 162 nM | ≥ 10000 nM | 46 nM | 1110 nM | 250 nM | ≤ 2 nM | ≤ 2 nM | ≤ 2 nM | 336 nM | 126 nM | 
3 | C#Cc1c(F)ccc2cc(O)cc(-c3ncc4c(N5CCCC6(CC(=O)N6)C5)nc(OC[C@@]56CCCN5C[C@H](F)C6)nc4c3F)c12 (stereo partly drawn) [Example 148] | 2210 nM | 68 nM | 105 nM | 550 nM | ≥ 10000 nM | 15 nM | 3780 nM | 76 nM | 260 nM | 110 nM | ≤ 2 nM | ≤ 2 nM | 3 nM | 132 nM | 59 nM | 
4 | CCc1c(F)ccc2cc(O)cc(-c3ncc4c(NCc5cccnc5N)nc(OC[C@@]56CCCN5C[C@H](F)C6)nc4c3F)c12 [Example 136, 4-(4-(((2-aminopyridin-3-yl)methyl)amino)-8-fluoro-2-(((2R,7aS)-2-fluorohexahydro-1H-pyrrolizin-7a-yl)methoxy)pyrido[4,3-d]pyrimidin-7-yl)-5-ethyl-6-fluoronaphthalen-2-ol] | 243 nM | 75 nM | 351 nM | 19 nM | 631 nM | 4 nM | ≥ 10000 nM | 7 nM | 181 nM | 52 nM | ≤ 2 nM | ≤ 2 nM | 3 nM | 83 nM | 318 nM | 
5 | CCc1c(F)ccc2cc(O)cc(-c3ncc4c(NCc5ccc6nccn6c5)nc(OC[C@@]56CCCN5C[C@H](F)C6)nc4c3F)c12 [Example 156, 5-ethyl-6-fluoro-4-(8-fluoro-2-(((2R,7aS)-2-fluorohexahydro-1H-pyrrolizin-7a-yl)methoxy)-4-((imidazo[1,2-a]pyridin-6-ylmethyl)amino)pyrido[4,3-d]pyrimidin-7-yl)naphthalen-2-ol] | 349 nM | 141 nM | 335 nM | 33 nM | 323 nM | 10 nM | ≥ 10000 nM | 14 nM | 189 nM | 72 nM | ≤ 2 nM | ≤ 2 nM | ≤ 2 nM | 143 nM | 125 nM | 
6 | CCc1c(F)ccc2cc(O)cc(-c3ncc4c(N5CCOCC(C)(O)C5)nc(OC[C@@]56CCCN5C[C@H](F)C6)nc4c3F)c12 (stereo partly drawn) [Example 63] | 63 nM | 38 nM | 15 nM | 139 nM | 44 nM | 27 nM | 1040 nM | 5 nM | 56 nM | 28 nM |  |  |  | 21 nM | 4 nM | IC50 (pERK in A549 cells): 19 nM
7 | CCc1c(F)ccc2cc(O)cc(-c3ncc4c(N5CCCC6(CNC6=O)C5)nc(OC[C@@]56CCCN5C[C@H](F)C6)nc4c3F)c12 (stereo partly drawn) [Example 146] | 607 nM | 204 nM | 22 nM | 1060 nM | 1000 nM | 15 nM | 2530 nM | 22 nM | ≥ 10000 nM | 400 nM | ≤ 2 nM | 3 nM | ≤ 2 nM | 327 nM | 92 nM | 
8 | C#Cc1c(F)ccc2cc(O)cc(-c3ncc4c(NCc5c[nH]c6ncccc56)nc(OC[C@@]56CCCN5C[C@H](F)C6)nc4c3F)c12 [Example 150, 4-(4-(((1H-pyrrolo[2,3-b]pyridin-3-yl)methyl)amino)-8-fluoro-2-(((2R,7aS)-2-fluorohexahydro-1H-pyrrolizin-7a-yl)methoxy)pyrido[4,3-d]pyrimidin-7-yl)-5-ethynyl-6-fluoronaphthalen-2-ol] | 115 nM | 362 nM | 435 nM | 45 nM | 996 nM | 4 nM | ≥ 10000 nM | 13 nM | 626 nM | 12 nM | ≤ 2 nM | ≤ 2 nM | ≤ 2 nM | 167 nM | 66 nM | 
9 | CCc1c(F)ccc2cc(O)cc(-c3ncc4c(N5CCOCC(CO)C5)nc(OC[C@@]56CCCN5C[C@H](F)C6)nc4c3F)c12 (stereo partly drawn) [Example 74, 5-ethyl-6-fluoro-4-(8-fluoro-2-(((2R,7aS)-2-fluorotetrahydro-1H-pyrrolizin-7a(5H)-yl)methoxy)-4-(6-(hydroxymethyl)-1,4-oxazepan-4-yl)pyrido[4,3-d]pyrimidin-7-yl)naphthalen-2-ol] | 336 nM | 55 nM | 72 nM | 63 nM | 662 nM | 10 nM | ≥ 10000 nM | 8 nM | 355 nM | 84 nM | ≤ 2 nM | 3 nM | ≤ 2 nM | 151 nM | 65 nM | 
10 | CCc1c(F)ccc2cccc(-c3ncc4c(N5CCCC6(CNC(=O)C6)C5)nc(OC[C@@]56CCCN5C[C@H](F)C6)nc4c3F)c12 (stereo partly drawn) [Example 37, 7-(7-(8-ethyl-7-fluoronaphthalen-1-yl)-8-fluoro-2-(((2R,7aS)-2-fluorotetrahydro-1H-pyrrolizin-7a(5H)-yl)methoxy)pyrido[4,3-d]pyrimidin-4-yl)-2,7-diazaspiro[4.5]decan-3-one] |  | ≥ 10000 nM | 2210 nM | 8950 nM | 4360 nM | 1720 nM | ≥ 10000 nM | 1670 nM | ≥ 10000 nM |  | 57 nM | 93 nM | 41 nM |  |  | IC50 (KRas G13D): 88 nM; IC50 (KRas Q61H): 88 nM; IC50 (KRas WT): 68 nM; IC50 (KRas G12A): 52 nM; IC50 (KRas G12C): 56 nM; IC50 (KRas G12S): 63 nM

— patent US12398154B2, “Azaquinazoline pan-KRas inhibitors” (Mirati Therapeutics, Inc., priority 2020, dated 2025)
